Values joined by “and” are separate entries in the source; they are usually repeats but may differ in a detail not shown here. Equal entries are not always repeated. Where two headings read alike, the source gives them in different places.
Tests used:
[1] = test system: human monoclonal nicotine-specific antibody IgG2-F018 (HCVR SEQ ID NO:24, LCVR SEQ ID NO:26); test: Equilibrium dialysis, affinity and competition; assay type: binding; details: for Cross-reactivity: competition with tritium-labeled (S)-(-)-nicotine for binding to IgG2-F018: 56 nM tritium-labeled (S)-(-)-nicotine, IgG2-F018 50 nM, unlabeled compound 1 nM to 100 µM, acetylcholine even at a 4000 fold molar excess
Procedure: Figure 1. Specificity of IgG2-F018. The binding of tritium-labeled (-)-nicotine (56 nM) to IgG2-F018 (50 nM) was measured by equilibrium dialysis in the presence of increasing concentrations of unlabeled (-)-nicotine, (-)-cotinine or acetylcholine. Averages of two independent experiments are given with standard deviation.
(§1) Affinity of antibodies for (S)-(-)-nicotine was determined by equilibrium dialysis using a DispoEquilibriumDialyzer (Harvard Biosciences). Two chambers of the dialyzer were separated by a membrane (10'000 Da cut-off). […] Concentrations of tritium-labeled (S)-(-)-nicotine (Amersham) ranging from 3 to 444 nM were used. Equilibrium dialysis was allowed to proceed for 48-72 h. Aliquots from both sides of the chamber were taken and radioactivity measured in a scintillation counter. Radioactivity corresponding to antibody-bound (S)-(-)-nicotine was calculated by subtracting the radioactivity measured for the chamber containing no antibody from the one containing the antibody. The free (S)-(-)-nicotine concentration was determined from the radioactivity measured for the chamber containing no antibody. The equilibrium dissociation constant (Kd) was derived from the fit of a one-site binding model to the measured bound radioactivity as a function of the free (S)-(-)-nicotine concentration. […]
Cross-reactivity of mAb IgG2-F018 to (-)-cotinine and acetylcholine was determined by co-incubation of 10 fold serial dilutions of these compounds (1 nM to 100 µM) with 56 nM tritium-labeled (S)-(-)-nicotine in the equilibrium dialysis chambers as described above (Figure 1).
(§2) We next determined the affinities of mAbs IgG2-F018, -F063, -J004, -J042 and-N049 for the (R)-(+)-isomer of nicotine. This stereoisomer is present in the tobacco plant. In addition, it can be formed by the combustion process during smoking and has qualitatively similar activities on the central nervous system as (S)-(-)-nicotine (Hukkanen J. et al., 2005, Pharmacol. Rev. 57, 79-115). Thus, the binding of a fixed concentration of tritium-labeled (S)-(-)-nicotine (F018: 56 nM; F063, J004, J042, N049: 111 nM) to each of the antibodies was measured by equilibrium dialysis in the presence of increasing concentrations of unlabeled (R)-(+)-nicotine (1 nM to 100 µM). The equilibrium dissociation constant (Kd) was derived from the fit of a one-site competition model to the measured bound radioactivity as a function of the (R)-(+)-nicotine concentration. […] Table 5. Dissociation constants Kd (nM) of antibody-(R)-(+)-nicotine interactions measured by equilibrium dialysis.

[2] = target: polyclonal antibodies against (S)-(-)-nicotine; details: read-out: affinity of polyclonal antibodies against (S)-(-)-nicotine; Maurer P. et al., 2005; cited from earlier work
[3] = target: human monoclonal nicotine-specific antibody IgG2-F063 (HCVR SEQ ID NO:28, LCVR SEQ ID NO:31)
Procedure: as §1, §2

[4] = target: human monoclonal nicotine-specific antibody IgG2-J042 (HCVR SEQ ID NO:28, LCVR SEQ ID NO:37)
Procedure: as §1, §2

[5] = target: human monoclonal nicotine-specific antibody IgG2-N049 (HCVR SEQ ID NO:39, LCVR SEQ ID NO:41)
Procedure: as §1, §2

[6] = target: human monoclonal nicotine-specific antibody IgG2-J004 (HCVR SEQ ID NO:33, LCVR SEQ ID NO:35)
Procedure: as §1, §2

[7] = target: human monoclonal nicotine-specific antibody I022, scFv-Fc fusion (scFv SEQ ID NO:70; HCVR SEQ ID NO:43, LCVR SEQ ID NO:45); details: read-out: Dissociation constant Kd, (S)-(-)-nicotine; scFv-Fc 5.4 µg/ml in PBS/2% BSA; tritium-labeled (S)-(-)-nicotine 3 to 444 nM; 48-72 h; mean ± SD of at least 2 independent experiments
Procedure: as §1

[8] = target: human monoclonal nicotine-specific antibody J042, scFv-Fc fusion (scFv SEQ ID NO:66; HCVR SEQ ID NO:28, LCVR SEQ ID NO:37); details: read-out: Dissociation constant Kd, (S)-(-)-nicotine; scFv-Fc 5.4 µg/ml in PBS/2% BSA; tritium-labeled (S)-(-)-nicotine 3 to 444 nM; 48-72 h; mean ± SD of at least 2 independent experiments
Procedure: as §1

[9] = target: human monoclonal nicotine-specific antibody N049, scFv-Fc fusion (scFv SEQ ID NO:68; HCVR SEQ ID NO:39, LCVR SEQ ID NO:41); details: read-out: Dissociation constant Kd, (S)-(-)-nicotine; scFv-Fc 5.4 µg/ml in PBS/2% BSA; tritium-labeled (S)-(-)-nicotine 3 to 444 nM; 48-72 h; mean ± SD of at least 2 independent experiments
Procedure: as §1

[10] = target: human monoclonal nicotine-specific antibody J004, scFv-Fc fusion (scFv SEQ ID NO:64; HCVR SEQ ID NO:33, LCVR SEQ ID NO:35); details: read-out: Dissociation constant Kd, (S)-(-)-nicotine; scFv-Fc 5.4 µg/ml in PBS/2% BSA; tritium-labeled (S)-(-)-nicotine 3 to 444 nM; 48-72 h; mean ± SD of at least 2 independent experiments
Procedure: as §1

[11] = target: human monoclonal nicotine-specific antibody F063, scFv-Fc fusion (scFv SEQ ID NO:62; HCVR SEQ ID NO:28, LCVR SEQ ID NO:31); details: read-out: Dissociation constant Kd, (S)-(-)-nicotine; scFv-Fc 5.4 µg/ml in PBS/2% BSA; tritium-labeled (S)-(-)-nicotine 3 to 444 nM; 48-72 h; mean ± SD of at least 2 independent experiments
Procedure: as §1

[12] = target: human monoclonal nicotine-specific antibody IgG2-N038 (HCVR SEQ ID NO:47, LCVR SEQ ID NO:49); details: read-out: Dissociation constant Kd, (S)-(-)-nicotine; IgG2 7.5 µg/ml in PBS/2% BSA; tritium-labeled (S)-(-)-nicotine 3 to 444 nM; 48-72 h; measured only once
Procedure: as §1

[13] = target: human monoclonal nicotine-specific antibody N038, scFv-Fc fusion (scFv SEQ ID NO:72; HCVR SEQ ID NO:47, LCVR SEQ ID NO:49); details: read-out: Dissociation constant Kd, (S)-(-)-nicotine; scFv-Fc 5.4 µg/ml in PBS/2% BSA; tritium-labeled (S)-(-)-nicotine 3 to 444 nM; 48-72 h; mean ± SD of at least 2 independent experiments
Procedure: as §1

[14] = target: human monoclonal nicotine-specific antibody IgG2-I022 (HCVR SEQ ID NO:43, LCVR SEQ ID NO:45); details: read-out: Dissociation constant Kd, (S)-(-)-nicotine; IgG2 7.5 µg/ml in PBS/2% BSA; tritium-labeled (S)-(-)-nicotine 3 to 444 nM; 48-72 h; mean ± SD of at least 2 independent experiments
Procedure: as §1

[15] = target: human monoclonal nicotine-specific antibody F018, scFv-Fc fusion (scFv SEQ ID NO:60; HCVR SEQ ID NO:24, LCVR SEQ ID NO:26); details: read-out: Dissociation constant Kd, (S)-(-)-nicotine; scFv-Fc 5.4 µg/ml in PBS/2% BSA; tritium-labeled (S)-(-)-nicotine 3 to 444 nM; 48-72 h; mean ± SD of at least 2 independent experiments
Procedure: as §1

[16] = read-out: Dissociation constant Kd, (S)-(-)-nicotine, IgG2 7.5 µg/ml in PBS/2% BSA, tritium-labeled (S)-(-)-nicotine 3 to 444 nM, 48-72 h, mean ± SD of at least 2 independent experiments
[17] = read-out: Dissociation constant Kd of antibody-(R)-(+)-nicotine interaction, competition with 111 nM tritium-labeled (S)-(-)-nicotine, unlabeled (R)-(+)-nicotine 1 nM to 100 µM, one-site competition model

SMILES: CN1C(=O)CC[C@H]1c1cccnc1 [(-)-cotinine]
- Cross-reactivity: competition with tritium-labeled (S)-(-)-nicotine for binding to IgG2-F018 [1]: did not effectively compete
- Binding strength relative to (S)-(-)-nicotine (fold less strongly), estimated from the IC50 observed ([1]; equilibrium dialysis competition with 56 nM tritium-labeled (S)-(-)-nicotine): about 1000 fold

SMILES: CN1CCC[C@H]1c1cccnc1 [(S)-(-)-nicotine]
- Kd [2]: 30 to 70 nM
- Cross-reactivity: competition with tritium-labeled (S)-(-)-nicotine for binding to IgG2-F018 [1]: readily displaced
- Kd ([1]; IgG2 7.5 µg/ml in PBS/2% BSA, tritium-labeled (S)-(-)-nicotine 3 to 444 nM, 48-72 h, mean ± SD of at least 2 independent experiments, read-out: Dissociation constant Kd, (S)-(-)-nicotine): 7 nM and 7.4 nM
- Kd [3, 16]: 31.4 ± 13 nM
- Kd [4, 16]: 30.2 ± 11 nM
- Kd [5, 16]: 35.6 ± 3.5 nM
- Kd [6, 16]: 64.5 ± 2.2 nM
- Kd [7]: 42.5 ± 17 nM
- Kd [8]: 47 ± 3.1 nM
- Kd [9]: 72.7 ± 5.6 nM
- Kd [10]: 33.3 ± 2 nM
- Kd [11]: 70.5 ± 14 nM
- Kd [12]: 744 nM
- Kd [13]: 686 ± 58 nM
- Kd [14]: 89.9 ± 9.8 nM
- Kd [15]: 11.5 ± 1.5 nM

SMILES: CN1CCC[C@@H]1c1cccnc1 [(R)-(+)-nicotine]
- Kd ([1]; competition with 56 nM tritium-labeled (S)-(-)-nicotine, unlabeled (R)-(+)-nicotine 1 nM to 100 µM, one-site competition model, read-out: Dissociation constant Kd of antibody-(R)-(+)-nicotine interaction): 3.1 nM
- Kd [3, 17]: 6.6 nM
- Kd [4, 17]: 7.7 nM
- Kd [5, 17]: 10.5 nM
- Kd [6, 17]: 12.6 nM

— patent EP2222702B1, “HUMAN […] SPECIFIC ANTIBODIES” (Cytos Biotechnology AG, priority 2007, dated 2009)
